Laboratory results taken from patent publication US10208000B2, “Eis inhibitors” (priority 2015, dated 2019).

Experiments:
K204 Mtb = type: cell-based, Mycobacterium tuberculosis; details: for K204 MICKAN: KAN MIC in presence of compound at concentration tested (100x IC50 or 20 μM), KAN line = absence of compound
H37Rv Mtb = assay: Mycobacterial MIC determination by alamar blue assay, KAN with sulfonyl isothiazoles; type: cell-based, Mycobacterium tuberculosis; details: KAN MIC in presence of compound at concentration tested (100x IC50 or 20 μM); KAN line = absence of compound
Mtb K204 = type: cell-based, Mycobacterium tuberculosis
[1] = target: Eis_Mtb acetyltransferase (Mycobacterium tuberculosis (strain ATCC 25618 / H37Rv), UniProt P9WFK7); type: biochemical; details: library compounds 20 μM
purified Eis = purified Eis (Mycobacterium tuberculosis (strain ATCC 25618 / H37Rv), UniProt P9WFK7); type: biochemical

| Structure (SMILES) | K204 MICKAN (K204 Mtb) [µg/mL] | H37Rv MICKAN (H37Rv Mtb) [µg/mL] | further results |
| --- | --- | --- | --- |
| CCN(CC)CCCNC1=NS(=O)(=O)C(c2ccc(C)c(C)c2)=C1C [Compound 3i] | 1.25 | 0.625 | reduction in KAN MIC against Mtb K204 (K204 Mtb): 8 fold |
| CC1=C(c2ccc(F)cc2)S(=O)(=O)N=C1NCCCN1CCCCC1 [Compound 6b] | 2.5 | 0.625 | – |
| CC1=C(c2ccc(F)cc2)S(=O)(=O)N=C1NCCCN1CCCCC1C (stereo not drawn) [Compound 7b] | 2.5 | 0.625 | – |
| CC1=C(c2ccccc2)S(=O)(=O)N=C1NCCCN1CC(C)CC(C)C1 (stereo not drawn) [Compound 8a] | 5 | 0.625 to 1.25 | – |
| CC1=C(c2ccc(C)cc2)S(=O)(=O)N=C1NCCCN1CC(C)CC(C)C1 (stereo not drawn) [Compound 8e] | 2.5 to 5 | 0.625 | – |
| CC1=C(c2ccc(Cl)cc2)S(=O)(=O)N=C1NCCCN1CCc2ccccc2C1 [Compound 11c] | 1.25 | 0.625 | reduction in KAN MIC against Mtb K204 (K204 Mtb): 8 fold |
| CC1=C(c2ccc(C)cc2)S(=O)(=O)N=C1NCCCN1CCCCCC1 [Compound 12e] | 2.5 | 0.625 | – |
| CC1=C(c2ccccc2)S(=O)(=O)N=C1NCCCN1CCOCC1 [Compound 13a] | 2.5 | 0.625 | – |
| CC1=C(c2ccc(C)cc2)S(=O)(=O)N=C1NCCCN1CCOCC1 [Compound 13e] | 2.5 | 0.625 | – |
| CC1=C(c2cccc(Cl)c2)S(=O)(=O)N=C1NCCCN1CCOCC1 [Compound 13g] | 2.5 to 5 | 0.625 | – |
| CC1=C(c2ccc(C)c(C)c2)S(=O)(=O)N=C1NCCCN1CCOCC1 [Compound 13i] | 5 | 0.625 | – |
| CC1=C(c2ccc(Cl)cc2)S(=O)(=O)N=C1NCCCN1CCN(C)CC1 [Compound 14c] | 5 | 0.625 | – |
| CCCN1CCN(CCCNC2=NS(=O)(=O)C(c3ccc(C)cc3)=C2C)CC1 [Compound 15e] | 5 | 0.625 to 1.25 | – |
| CCCN1CCN(CCCNC2=NS(=O)(=O)C(c3ccc(C(C)C)cc3)=C2C)CC1 [Compound 15f] | 10 | 0.625 to 1.25 | – |
| CC1=C(c2ccc(C)c(C)c2)S(=O)(=O)N=C1NCCCN1CCN(C2CCCCC2)CC1 [Compound 17i] | 5 | 0.625 to 1.25 | – |
| CN(c1ccc(Br)cc1)S(=O)(=O)c1ccc2[nH]c(=O)c(=O)[nH]c2c1 [Compound 29] | – | – | reduction of KAN MIC value compared to KAN alone (Mtb K204; K204 Mtb): four-fold; Eis inhibition in the HTS [1]: identified as hits |
| CN(c1ccccc1)S(=O)(=O)c1ccc2[nH]c(=O)c(=O)[nH]c2c1 [Compound 33] | – | – | decrease in Eis inhibitory activity compared to lead 29 (purified Eis): 70 fold |
| CC1=C(c2ccccc2)S(=O)(=O)N=C1NCCN1CCCCC1 [Compound 33a] | 5 | 0.625 | – |
| CC(C)c1ccc(N(C)S(=O)(=O)c2ccc3[nH]c(=O)c(=O)[nH]c3c2)cc1 [Compound 35] | – | – | K204 MICKAN (Mtb K204; anti-TB activity of KAN against Mtb K204 with compound, KAN line = KAN alone): 2.5 µg/mL |
| CC1=C(c2ccc(C)cc2)S(=O)(=O)N=C1NCCN1CCOCC1 [Compound 35e] | 5 | 0.625 | – |
| CC1=C(c2cccc(Cl)c2)S(=O)(=O)N=C1NCCN1CCOCC1 [Compound 35g] | 2.5 | 0.625 | – |
